According to patent publication US12617783B2, “Heterocyclic GLP-1R agonists” (BIOMEA FUSION, INC., priority 2024, dated 2026):
Where two headings read alike, the source gives them in different places.

Molecular target: T1, human GLP-1R (Homo sapiens, UniProt P43220)
T1 construct: host or cells: HEK293
Test: GLP-1R cAMP assay (Example B1a, HTRF, 30 min at room temperature)
Type: cell-based
Conditions: for EC50: read-out: EC50; for potency: text to Table 1d, bridge atoms configured out of the plane or toward the reader
Outline: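 Competitive HTRF read-out of cAMP after 30 min room-temperature stimulation, BETP absent, of human GLP-1R-HEK293 cells (1,000/well) in HEPES buffer with 500 μM IBMX and 0.1% BSA. Activation normalised to GLP-1(7-37) positive control. EC50 from 4-parameter non-linear regression.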

[1] = cAMP accumulation in HEK293 expressing human GLP-1R, no BETP, 30 min room temperature (Method B1a, compounds ID 1-609), Table 1

T1 sequence (P43220 24-463): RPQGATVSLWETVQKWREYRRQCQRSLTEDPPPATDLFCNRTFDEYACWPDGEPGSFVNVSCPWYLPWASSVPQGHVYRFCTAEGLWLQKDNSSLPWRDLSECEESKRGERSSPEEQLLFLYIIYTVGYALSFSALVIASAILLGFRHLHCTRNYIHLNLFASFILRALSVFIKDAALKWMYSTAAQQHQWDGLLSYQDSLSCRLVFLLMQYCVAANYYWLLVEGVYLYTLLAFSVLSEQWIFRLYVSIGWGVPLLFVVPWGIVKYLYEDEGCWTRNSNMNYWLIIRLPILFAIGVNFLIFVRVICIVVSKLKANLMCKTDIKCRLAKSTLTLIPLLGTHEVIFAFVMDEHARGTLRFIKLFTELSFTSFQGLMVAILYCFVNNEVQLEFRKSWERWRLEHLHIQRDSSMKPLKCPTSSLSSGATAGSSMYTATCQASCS

SMILES: Cc1cc(-n2nc3c(c2-n2ccn(-c4ccc5c(cnn5C)c4C)c2=O)[C@@H]2COC[C@H](C3)N2C(=O)c2cc3cc([C@H]4CCOC(C)(C)C4)ccc3n2[C@@]2(c3noc(=O)[nH]3)C[C@@H]2C)cc(C)c1F [Compound 228, 3-[(1S,2S)-1-[2-[(1R,8S)-3-[3-(1,4-dimethylindazol-5-yl)-2-oxo-imidazol-1-yl]-4-(4-fluoro-3,5-dimethyl-phenyl)-10-oxa-4,5,12-triazatricyclo[6.3.1.02,6]dodeca-2,5-diene-12-carbonyl]-5-[(4S)-2,2-dimethyltetrahydropyran-4-yl]indol-1-yl]-2-methyl-cyclopropyl]-4H-1,2,4-oxadiazol-5-one]
- EC50 [1]: 0.402 µM

SMILES: Cc1cc(-n2nc3c(c2-n2ccn(-c4ccc5c(cnn5C)c4F)c2=O)[C@@H]2CC[C@H](C3)N2C(=O)c2cc3cc([C@H]4CCOC(C)(C)C4)ccc3n2C2(c3nnn[nH]3)CC2)cc(C)c1F [Compound 118, 1-((4S,7R)-9-(1-(1-(1H-tetrazol-5-yl)cyclopropyl)-5-((S)-2,2-dimethyltetrahydro-2H-pyran-4-yl)-1H-indole-2-carbonyl)-2-(4-fluoro-3,5-dimethylphenyl)-2,4,5,6,7,8-hexahydro-4,7-epiminocyclohepta [c]pyrazol-3-yl)-3-(4-fluoro-1-methyl-1H-indazol-5-yl)-1H-imidazol-2 (3H)-one]
- EC50 [1]: 0.452 µM

SMILES: Cc1cc(-n2nc3c(c2-n2ccn(-c4ccc5c(cnn5C)c4F)c2=O)[C@H]2CCC[C@@H](C3)N2C(=O)c2cc3cc([C@H]4CCOC(C)(C)C4)ccc3n2[C@@]2(c3noc(=O)[nH]3)C[C@@H]2C)cc(C)c1F [Compound 430, 3-((1S,2S)-1-(5-((S)-2,2-dimethyltetrahydro-2H-pyran-4-yl)-2-((4R,8S)-3-(3-(4-fluoro-1-methyl-1H-indazol-5-yl)-2-oxo-2,3-dihydro-1H-imidazol-1-yl)-2-(4-fluoro-3,5-dimethylphenyl)-4,5,6,7,8,9-hexahydro-2H-4,8-epiminocycloocta [c]pyrazole-10-carbonyl)-1H-indol-1-yl)-2-methylcyclopropyl)-1,2,4-oxadiazol-5 (4H)-one]
- EC50 [1]: ≥ 10 µM
- potency: little or no potency

SMILES: Cc1cc(-n2nc3c(c2-n2ccn(-c4ccc(C(N)=O)c(F)c4)c2=O)[C@@H]2CC[C@H](C3)N2C(=O)c2cc3cc([C@H]4CCOC(C)(C)C4)ccc3n2C2(c3noc(=O)[nH]3)CC2)cc(C)c1F [Compound 117, 4-[3-[(1S,8R)-11-[5-[(4S)-2,2-dimethyltetrahydropyran-4-yl]-1-[1-(5-oxo-4H-1,2,4-oxadiazol-3-yl)cyclopropyl]indole-2-carbonyl]-4-(4-fluoro-3,5-dimethyl-phenyl)-4,5,11-triazatricyclo[6.2.1.02,6]undeca-2,5-dien-3-yl]-2-oxo-imidazol-1-yl]-2-fluoro-benzamide]
- EC50 [1]: > 10 µM

SMILES: Cc1cc(-n2nc3c(c2-n2ccn(-c4ccc5c(cnn5C)c4F)c2=O)[C@@H]2CC[C@H](C3)N2S(=O)(=O)c2cc3cc(C4CCOC(C)(C)C4)ccc3n2[C@@]2(c3noc(=O)[nH]3)C[C@@H]2C)cc(C)c1F (stereo partly drawn) [Compound 503, 3-((1S,2S)-1-(5-(2,2-dimethyltetrahydro-2H-pyran-4-yl)-2-(((4S,7R)-3-(3-(4-fluoro-1-methyl-1H-indazol-5-yl)-2-oxo-2,3-dihydro-1H-imidazol-1-yl)-2-(4-fluoro-3,5-dimethylphenyl)-2,4,5,6,7,8-hexahydro-4,7-epiminocyclohepta [c]pyrazol-9-yl)sulfonyl)-1H-indol-1-yl)-2-methylcyclopropyl)-1,2,4-oxadiazol-5 (4H)-one]
- EC50 [1]: 0.0978 µM

SMILES: Cc1cc(-n2nc3c(c2-n2ccn(-c4ccc5c(cnn5C)c4F)c2=O)[C@H]2COC[C@@H](C3)N2C(=O)c2cc3cc([C@H]4CCOC(C)(C)C4)ccc3n2[C@@]2(c3noc(=O)[nH]3)C[C@@H]2C)cc(C)c1F [Compound 120, 3-((1S,2S)-1-(5-((S)-2,2-dimethyltetrahydro-2H-pyran-4-yl)-2-((4S,8R)-3-(3-(4-fluoro-1-methyl-1H-indazol-5-yl)-2-oxo-2,3-dihydro-1H-imidazol-1-yl)-2-(4-fluoro-3,5-dimethylphenyl)-2,4,5,7,8,9-hexahydro-4,8-epiminooxocino [5,4-c]pyrazole-10-carbonyl)-1H-indol-1-yl)-2-methylcyclopropyl)-1,2,4-oxadiazol-5(4H)-one]
- EC50 (Table 1d, stereoisomer pairs): > 10 µM
- EC50 [1]: > 10 µM
- potency: little or no potency

SMILES: Cc1cc(-n2nc3c(c2-n2ccn(-c4ccc5c(cnn5C)c4F)c2=O)[C@H]2CC[C@@H](C3)N2C(=O)c2cc3cc([C@@H]4CCOC5(CC5)C4)ccc3n2[C@@]2(c3noc(=O)[nH]3)C[C@H]2C)cc(C)c1F [Compound 540, 3-((1S,2R)-1-(2-((4R,7S)-3-(3-(4-fluoro-1-methyl-1H-indazol-5-yl)-2-oxo-2,3-dihydro-1H-imidazol-1-yl)-2-(4-fluoro-3,5-dimethylphenyl)-2,4,5,6,7,8-hexahydro-4,7-epiminocyclohepta [c]pyrazole-9-carbonyl)-5-((R)-4-oxaspiro[2.5]octan-7-yl)-1H-indol-1-yl)-2-methylcyclopropyl)-1,2,4-oxadiazol-5 (4H)-one]
- EC50 [1]: ≥ 10 µM

SMILES: Cc1cc(-n2nc3c(c2-n2ccn(-c4ccc5c(cnn5C)c4F)c2=O)[C@H](C)N(C(=O)c2cc4cc([C@H]5CCOC(C)(C)C5)ccc4n2C(=O)c2noc(=O)[nH]2)CC3)cc(C)c1F [Compound 115, 3-[5-[(4S)-2,2-dimethyltetrahydropyran-4-yl]-2-[(4S)-2-(4-fluoro-3,5-dimethyl-phenyl)-3-[3-(4-fluoro-1-methyl-indazol-5-yl)-2-oxo-imidazol-1-yl]-4-methyl-6,7-dihydro-4H-pyrazolo[4,3-c]pyridine-5-carbonyl]indole-1-carbonyl]-4H-1,2,4-oxadiazol-5-one]
- EC50 [1]: > 10 µM

SMILES: Cc1cc(-n2nc3c(c2-n2ccn(-c4ccc5c(cnn5C)c4F)c2=O)[C@@H]2CC[C@H](C3)N2C(=O)c2cc3cc(C4CCOC5(CC5)C4)ccc3n2[C@@]2(c3noc(=O)[nH]3)C[C@@H]2C)cc(C)c1F (stereo partly drawn) [Compound 213, 3-((1S,2S)-1-(2-((4S,7R)-3-(3-(4-fluoro-1-methyl-1H-indazol-5-yl)-2-oxo-2,3-dihydro-1H-imidazol-1-yl)-2-(4-fluoro-3,5-dimethylphenyl)-2,4,5,6,7,8-hexahydro-4,7-epiminocyclohepta [c]pyrazole-9-carbonyl)-5-(4-oxaspiro[2.5]octan-7-yl)-1H-indol-1-yl)-2-methylcyclopropyl)-1,2,4-oxadiazol-5 (4H)-one]
- EC50 [1]: 0.0812 µM

SMILES: Cc1cc(-n2nc3c(c2-n2ccn(-c4ccc5c(cnn5C)c4F)c2=O)[C@@H]2CCC[C@H](C3)N2S(=O)(=O)c2cc3cc([C@H]4CCOC5(CC5)C4)ccc3n2[C@]2(c3noc(=O)[nH]3)C[C@@H]2C)cc(C)c1F [Compound 609, 3-[(1R,2S)-1-[2-[[(1S,8R)-4-(4-fluoro-3,5-dimethyl-phenyl)-3-[3-(4-fluoro-1-methyl-indazol-5-yl)-2-oxo-imidazol-1-yl]-4,5,12-triazatricyclo[6.3.1.02,6]dodeca-2,5-dien-12-yl]sulfonyl]-5-[(7S)-4-oxaspiro [2.5]octan-7-yl]indol-1-yl]-2-methyl-cyclopropyl]-4H-1,2,4-oxadiazol-5-one]
- EC50 [1]: ≥ 10 µM

SMILES: Cc1cc(-n2nc3c(c2-n2ccn(-c4ccc5c(cnn5C)c4F)c2=O)[C@@H]2CC[C@H](C3)N2C(=O)c2cc3cc([C@H]4CCOC(C)(C)C4)ccc3n2[C@@]2(C(=O)NS(=O)(=O)N(C)C)C[C@@H]2C)cc(C)c1F [Compound 205, cis-(1S,2S)-N-(dimethylsulfamoyl)-1-[5-[(4S)-2,2-dimethyltetrahydropyran-4-yl]-2-[(1S,8R)-4-(4-fluoro-3,5-dimethyl-phenyl)-3-[3-(4-fluoro-1-methyl-indazol-5-yl)-2-oxo-imidazol-1-yl]-4,5,11-triazatricyclo[6.2.1.02,6]undeca-2,5-diene-11-carbonyl]indol-1-yl]-2-methyl-cyclopropanecarboxamide]
- EC50 [1]: > 10 µM

SMILES: Cc1cc(-n2nc3c(c2-n2ccn(-c4ccc5c(cnn5C)c4F)c2=O)[C@@H]2CC[C@H](C3)N2C(=O)c2cc3cc([C@@H]4CCOC5(CC5)C4)ccc3n2[C@@]2(c3noc(=O)[nH]3)C[C@H]2C)cc(C)c1F [Compound 541, 3-((1S,2R)-1-(2-((4S,7R)-3-(3-(4-fluoro-1-methyl-1H-indazol-5-yl)-2-oxo-2,3-dihydro-1H-imidazol-1-yl)-2-(4-fluoro-3,5-dimethylphenyl)-2,4,5,6,7,8-hexahydro-4,7-epiminocyclohepta [c]pyrazole-9-carbonyl)-5-((R)-4-oxaspiro[2.5]octan-7-yl)-1H-indol-1-yl)-2-methylcyclopropyl)-1,2,4-oxadiazol-5 (4H)-one]
- EC50 [1]: ≥ 10 µM

SMILES: Cc1cc(-n2nc3c(c2-n2ccn(-c4ccc5c(cnn5C)c4F)c2=O)[C@H]2CC[C@@H](C3)N2C(=O)c2cc3cc([C@H]4CCOC5(CC5)C4)ccc3n2[C@]2(c3noc(=O)[nH]3)C[C@@H]2C)cc(C)c1F [Compound 531, 3-[(1R,2S)-1-[2-[(1R,8S)-4-(4-fluoro-3,5-dimethyl-phenyl)-3-[3-(4-fluoro-1-methyl-indazol-5-yl)-2-oxo-imidazol-1-yl]-4,5,11-triazatricyclo[6.2.1.02,6]undeca-2,5-diene-11-carbonyl]-5-[(7S)-4-oxaspiro[2.5]octan-7-yl]indol-1-yl]-2-methyl-cyclopropyl]-4H-1,2,4-oxadiazol-5-one]
- EC50 [1]: ≥ 10 µM

SMILES: Cc1cc(-n2nc3c(c2-n2ccn(-c4ccc5c(cnn5C)c4F)c2=O)[C@@H]2CC[C@H](C3)N2C(=O)c2cc3sc(C4CCOC(C)(C)C4)nc3n2[C@@]2(c3noc(=O)[nH]3)C[C@@H]2C)cc(C)c1F (stereo partly drawn) [Compound 245, 3-[(1S,2S)-1-[2-(2,2-dimethyltetrahydropyran-4-yl)-5-[(1S,8R)-4-(4-fluoro-3,5-dimethyl-phenyl)-3-[3-(4-fluoro-1-methyl-indazol-5-yl)-2-oxo-imidazol-1-yl]-4,5,11-triazatricyclo[6.2.1.02,6]undeca-2,5-diene-11-carbonyl]pyrrolo[2,3-d]thiazol-4-yl]-2-methyl-cyclopropyl]-4H-1,2,4-oxadiazol-5-one]
- EC50 [1]: 5.07 µM
